In ChEMBL document CHEMBL6182881, “Optimized ebselen derivatives as novel potent Escherichia coli β-glucuronidase covalent allosteric inhibitors” (Eur J Med Chem, 2025):
Active and inactive are the calls of the source. The rule behind the calls is not given here.

Experiments:
[1] = test system: Escherichia coli; test: Covalent allosteric inhibition of recombinant Escherichia coli beta-glucuronidase using PNPG as substrate at 10 uM incubated for 30 mins by absorbance based microplate reader assay relative to control
[2] = Covalent allosteric inhibition of recombinant Escherichia coli beta-glucuronidase using PNPG as substrate incubated for 30 mins by absorbance based microplate reader assay
[3] = Cytotoxicity against human HCT-116 cells assessed as cell viability at 5 uM incubated for 24 hrs by CCK-8 assay relative to control; format: toxicity, cell-based; details: read-out: Activity
[4] = test system: Escherichia coli; test: Covalent binding affinity to recombinant Escherichia coli beta-glucuronidase at Cys197 residue by LC-MS/MS analysis
[5] = test system: Escherichia coli; test: Potency index, ratio of IC50 for amoxapine to test compound IC50 for covalent allosteric inhibition of recombinant Escherichia coli beta-glucuronidase using PNPG as substrate incubated for 30 mins by absorbance based microplate reader assay
[6] = test system: Escherichia coli; test: Covalent binding affinity to recombinant Escherichia coli beta-glucuronidase at Cys443 residue by LC-MS/MS analysis
[7] = test system: Escherichia coli; test: Covalent reversible binding affinity to recombinant Escherichia coli beta-glucuronidase using PNPG as substrate at 10 times IC50 pre-incubated for 30 mins followed by substrate addition by jump dilution assay
[8] = test system: Escherichia coli; test: Covalent binding affinity to recombinant Escherichia coli beta-glucuronidase at Cys28 residue by LC-MS/MS analysis
[9] = Covalent reversible binding affinity to recombinant Escherichia coli beta-glucuronidase assessed as apparent inhibition constant incubated for 30 mins; details: read-out: Ki(app)
[10] = Binding affinity to Escherichia coli beta-glucuronidase assessed as inhibition constant
[11] = Covalent inhibition of Escherichia coli beta-glucurodinase
[12] = test system: Escherichia coli; test: Covalent irreversible binding affinity to recombinant Escherichia coli beta-glucuronidase assessed as inactivation constant incubated for 30 mins
[13] = Covalent irreversible binding affinity to recombinant Escherichia coli beta-glucuronidase assessed as inhibition constant incubated for 30 mins
[14] = test system: Escherichia coli; test: Covalent irreversible binding affinity to recombinant Escherichia coli beta-glucuronidase using PNPG as substrate at 10 times IC50 pre-incubated for 30 mins followed by substrate addition by jump dilution assay
[15] = test system: Escherichia coli; test: Covalent irreversible binding affinity to recombinant Escherichia coli beta-glucuronidase assessed as kinact/ki ratio incubated for 30 mins

Structure (SMILES)	inhibition [1] [%]	IC50 [2] [nM]	other results
O=c1c2ccccc2[se]n1-c1ncc(C(F)(F)F)cc1Cl	< 90	–	–
O=c1c2ccccc2[se]n1-c1ccccn1	< 90	–	–
O=c1c2cc(Br)ccc2[se]n1-c1ccccc1	< 90	–	–
O=c1c2ccccc2[se]n1-c1nccs1	< 90	–	–
CNC(=O)c1cc(Oc2ccc(-n3[se]c4ccccc4c3=O)cc2)ccn1	96.2	446	viability at 24 h, 5 µM [3]: 86.2%
CN(C)CCn1[se]c2ccccc2c1=O	> 90	–	–
O=c1c2ccccc2[se]n1-c1nnc(CC(F)(F)F)s1	6.11	–	–
O=c1c2ccccc2[se]n1-c1nncs1	< 90	–	–
O=c1[nH][se]c2ccccc12	72.1	–	–
CC(C)c1nnc(-n2[se]c3ccccc3c2=O)s1	< 90	–	–
Cn1cc(-n2[se]c3ccccc3c2=O)cn1	94.8	42.1	–
C=CCn1[se]c2ccccc2c1=O	> 90	–	–
O=c1c2ccccc2[se]n1-c1ccc2[nH]ncc2c1	< 90	–	–
O=c1c2ccccc2[se]n1C1CCCCC1	< 90	–	–
O=c1c2ccccc2[se]n1-c1ccc(F)cc1	> 90	–	–
COc1ccc(-n2[se]c3ccccc3c2=O)cc1	< 90	–	–
O=c1c2ccccc2[se]n1CC(F)(F)F	94.7	76.9	–
Cc1ccc2c(=O)n(Cc3ccccc3)[se]c2c1	< 90	–	–
O=c1c2ccccc2[se]n1-c1cccnc1	> 90	–	–
O=c1c2ccccc2[se]n1-c1cn[nH]c1	98.3	12.9	Activity [4]: Active; Ratio IC50 [5]: 15.6; Activity [6]: Active; viability at 24 h, 5 µM [3]: 71.5%; Activity [7]: Active; Activity [8]: Active; Ki [9]: 23.3 nM
O=c1c2ccccc2[se]n1-c1nnc(C(F)(F)F)s1	93.7	188	–
COC(=O)[C@H](CC(C)C)NC(=O)Cn1[se]c2ccccc2c1=O	> 90	–	–
CCCc1nnc(-n2[se]c3ccccc3c2=O)s1	< 90	–	–
Clc1ccc2c(c1)C(N1CCNCC1)=Nc1ccccc1O2 [AMOXAPINE]	88.9	202	Ki [10]: 180 nM
CCc1nnc(-n2[se]c3ccccc3c2=O)s1	< 90	–	–
CCn1[se]c2ccccc2c1=O	< 90	–	–

Structure (SMILES)	inhibition [1] [%]	IC50 [2] [nM]	other results
C=CCCn1[se]c2ccccc2c1=O	< 90	–	–
O=c1c2ccccc2[se]n1-c1cc(C2CC2)[nH]n1	< 90	–	–
O=c1c2ccccc2[se]n1C12CC3CC(CC(C3)C1)C2	< 90	–	–
O=c1[nH][se]c2ccc(C(F)(F)F)cc12	< 90	–	–
O=c1c2ccccc2[se]n1-c1nnc(C2CCC(F)(F)CC2)s1	< 90	–	–
O=c1c2ccccc2[se]n1-c1cnc2[nH]ncc2c1	< 90	–	–
COC(=O)[C@H](Cc1ccc(O)cc1)n1[se]c2ccccc2c1=O	96.9	21.2	viability at 24 h, 5 µM [3]: 86.2%
Cc1cc(-n2[se]c3ccccc3c2=O)n[nH]1	< 90	–	–
O=C(O)c1ccc(-n2[se]c3ccccc3c2=O)cc1	96.8	55.7	viability at 24 h, 5 µM [3]: 86.2%
CC(C)(C)c1nnc(-n2[se]c3ccccc3c2=O)s1	> 90	–	–
O=c1c2ccccc2[se]n1-c1ccc(Cl)cc1	94.3	127	–
Oc1ccccc1-c1nc2cc(Cl)cc(Cl)c2[nH]1	–	–	IC50 [11]: 4480 nM
O=c1c2ccccc2[se]n1-c1ccc2[nH]ccc2c1	> 90	–	–
COC(=O)[C@H](CCCCNC(=O)OC(C)(C)C)n1[se]c2ccccc2c1=O	94.4	66.5	viability at 24 h, 5 µM [3]: 86.2%
COC(=O)c1ccc2c(=O)n(-c3cccc4cccnc34)[se]c2c1	98.4	63.4	–
O=c1c2ccccc2[se]n1-c1nnc(C2CCCC2)s1	< 90	–	–
COC(=O)[C@H](Cc1c[nH]c2ccccc12)n1[se]c2ccccc2c1=O	> 90	–	–
CN1CCC(n2[se]c3ccccc3c2=O)CC1	93.9	58.5	–
Cc1nnc(-n2[se]c3ccccc3c2=O)s1	< 90	–	–
COC(=O)[C@H](CSC)n1[se]c2ccccc2c1=O	> 90	–	–
Cc1nnc(-n2[se]c3ccccc3c2=O)o1	97.5	116	–
O=c1c2ccccc2[se]n1-c1ccc(C(F)(F)F)cc1	< 90	–	–
CC(=O)OC[C@H]1O[C@@H](n2cnc3c(-n4[se]c5ccccc5c4=O)ncnc32)[C@H](OC(C)=O)[C@@H]1OC(C)=O	98.8	73.4	Kinact [12]: 7.6 min⁻¹; Activity [4]: Active; Ki [13]: 5950 nM; Activity [14]: Active; viability at 24 h, 5 µM [3]: 81%; K [15]: 21300 M⁻¹ s⁻¹
COC(=O)[C@H](CO)n1[se]c2ccccc2c1=O	93.8	48.2	viability at 24 h, 5 µM [3]: 86.2%
O=c1c2ccccc2[se]n1CCO	96.2	18.3	viability at 24 h, 5 µM [3]: 86.2%
O=c1c2ccccc2[se]n1-c1ccccc1	< 90	–	–
